Reference: patent publication US20230365592A1 (Agios Pharmaceuticals, Inc., priority 2022, published 2023)

Each compound was assayed against T1, human PAH with the R408W mutation (Homo sapiens, UniProt P00439, R408W) (assay: Cell Based Phenylalanine Flux Assay). Settings: A375 cells expressing R408W PAH; 24 hrs with compound, then 20 µM sepiapterin and 800 µM 13C9,15N-Phenylalanine for 4 hours; 13C-Tyrosine by LC-MS; average where tested multiple times; read-out: AC50.
T1 construct: expressed in transfected cells
T1 sequence (P00439 1-452 R408W): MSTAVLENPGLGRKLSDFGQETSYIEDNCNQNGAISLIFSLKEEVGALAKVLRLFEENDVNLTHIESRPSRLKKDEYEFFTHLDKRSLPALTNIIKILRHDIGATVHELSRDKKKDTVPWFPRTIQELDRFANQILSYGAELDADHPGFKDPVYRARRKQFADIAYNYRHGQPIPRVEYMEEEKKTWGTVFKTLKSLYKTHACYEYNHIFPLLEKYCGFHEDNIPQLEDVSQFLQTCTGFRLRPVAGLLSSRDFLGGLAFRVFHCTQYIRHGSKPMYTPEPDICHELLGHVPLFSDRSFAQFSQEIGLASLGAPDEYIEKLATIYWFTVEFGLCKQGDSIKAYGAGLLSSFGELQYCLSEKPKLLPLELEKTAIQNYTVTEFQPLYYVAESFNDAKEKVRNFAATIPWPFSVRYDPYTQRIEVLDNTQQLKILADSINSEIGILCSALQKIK
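Also: after compound treatment, cells received sepiapterin plus isotope-labelled Phenylalanine for 4 hours, then labelled Tyrosine in the medium was quantified, 10-point 2-fold dilution series run in duplicate.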
Method: Compounds were resuspended in DMSO, and 2-fold serial dilutions were performed to generate a 10-point dose curve. Compounds were added to plated cells in a total volume of 100 µl, and a final DMSO concentration of 0.5%. Each compound was tested in duplicate. Following compound addition, cells were placed in a 5% CO2, 37° C. tissue culture incubator for 24 hrs. After the incubation period, 20 µM sepiapterin and 800 µM 13C9,15N-Phenylalanine were added. After 4 hours, cell media was removed. An aliquot of 10 µl of cell media was combined with 200 µl of extraction buffer (80% acetonitrile/20% H2O) for each well. Determination of ^13C-Tyrosine concentration was assessed by liquid chromatography mass spectrometry.
Where a compound was tested multiple times, the average value of the tests is reported.

AC50	Compound
1000 to 5000 nM	CC(C)(F)c1nnc(C(=O)N2CCc3[nH]cnc3C2c2cc3ccccn3n2)o1 (stereo not drawn)
1000 to 5000 nM	CN(C)Cc1ccc2c(C(=O)N3CCc4[nH]cnc4C3c3cc4c(F)cccn4n3)cnn2c1 (stereo not drawn)
> 5000 nM	COCCNc1nnc(C(=O)N2CCc3[nH]cnc3C2c2cc3ccccn3n2)o1 (stereo not drawn)
1000 to 5000 nM	Cc1cccn2nc(C3c4nc[nH]c4CCN3C(=O)c3nnc(N4CCN(C)CC4)o3)cc12 (stereo not drawn)
> 5000 nM	O=C(C1CN(CC(F)(F)F)C1)N1CCc2[nH]cnc2C1c1cc2ccccn2n1 (stereo not drawn)
1000 to 5000 nM	CC(C)(O)c1nnc(C(=O)N2CCc3[nH]cnc3C2c2cc3cccc(C(F)(F)F)n3n2)o1 (stereo not drawn)
1000 to 5000 nM	FC1(F)CC(c2nnc(N3CCc4[nH]cnc4C3c3cc4c(C(F)(F)F)cccn4n3)o2)C1 (stereo not drawn)
> 5000 nM	O=C(c1cnco1)N1CCc2[nH]cnc2C1c1cc2cc(C(F)(F)F)ccn2n1 (stereo not drawn)
1000 to 5000 nM	Cc1nc(C(C)O)oc1C(=O)N1CCc2[nH]cnc2C1c1cc2cccc(C(F)(F)F)n2n1 (stereo not drawn)
1000 to 5000 nM	Cc1c(C2c3nc[nH]c3CCN2C(=O)c2nnc(C3CC3)o2)nn2ccccc12 (stereo not drawn)

Compound	AC50
O=C(c1cnco1)N1CCc2[nH]cnc2[C@@H]1c1cc2ccccn2n1 (single isomer, unassigned)	1000 to 5000 nM

Same assay, conditions: A375 cells expressing human PAH R408W; 24 hrs compound incubation; 13C-Tyrosine by LC-MS; average where tested multiple times; read-out: AC50

AC50	Compound
< 500 nM	CC(C)c1cccn2nc([C@@H]3c4nc[nH]c4CCN3c3nnc(C(F)F)o3)cc12 [Example 2085, (S)-2-(difluoromethyl)-5-(4-(4-isopropylpyrazolo[1,5-a]pyridin-2-yl)-1,4,6,7-tetrahydro-5H-imidazo[4,5-c]pyridin-5-yl)-1,3,4-oxadiazole]
500 to 1000 nM	Cc1cccn2nc([C@@H]3c4nc[nH]c4CCN3c3nnc(-c4cnccn4)o3)cc12 [Example 2157, (S)-2-(4-(4-methylpyrazolo[1,5-a]pyridin-2-yl)-1,4,6,7-tetrahydro-5H-imidazo[4,5-c]pyridin-5-yl)-5-(pyrazin-2-yl)-1,3,4-oxadiazole]
1000 to 5000 nM	O=C(c1nnc(C2CCC2)o1)N1CCc2[nH]cnc2[C@H]1c1cc2cccc(C(F)(F)F)n2n1 [Example 2430, (S)-(5-cyclobutyl-1,3,4-oxadiazol-2-yl)(4-(7-(trifluoromethyl)pyrazolo[1,5-a]pyridin-2-yl)-6,7-dihydro-1H-imidazo[4,5-c]pyridin-5(4H)-yl)methanone]
500 to 1000 nM	Fc1cccnc1-c1nnc(N2CCc3[nH]cnc3[C@H]2c2cc3ccccn3n2)o1 [Example 2338, (S)-2-(3-fluoropyridin-2-yl)-5-(4-(pyrazolo[1,5-a]pyridin-2-yl)-1,4,6,7-tetrahydro-5H-imidazo[4,5-c]pyridin-5-yl)-1,3,4-oxadiazole]

Same assay, conditions: A375 cells expressing human R408W PAH; 24 hrs compound incubation; 13C-Tyrosine by LC-MS; average where tested multiple times; read-out: AC50

Compound	AC50
CC(C)(O)c1nc(Br)c(C(=O)N2CCc3[nH]cnc3[C@H]2c2cc3ccccn3n2)o1 [Example 676, (S)-(4-bromo-2-(2-hydroxypropan-2-yl)oxazol-5-yl)(4-(pyrazolo[1,5-a]pyridin-2-yl)-6,7-dihydro-1H-imidazo[4,5-c]pyridin-5(4H)-yl)methanone]	< 500 nM
Cn1cc(C(=O)N2CCc3[nH]cnc3[C@@H]2c2cc3ccccn3n2)c(C(F)F)n1 [Example 663, (R)-(3-(difluoromethyl)-1-methyl-1H-pyrazol-4-yl)(4-(pyrazolo[1,5-a]pyridin-2-yl)-6,7-dihydro-1H-imidazo[4,5-c]pyridin-5(4H)-yl)methanone]	1000 to 5000 nM
CC(C)(O)c1nc(C(F)F)c(C(=O)N2CCc3[nH]cnc3[C@@H]2c2cc3ccccn3n2)o1 [Example 671, (R)-(4-(difluoromethyl)-2-(2-hydroxypropan-2-yl)oxazol-5-yl)(4-(pyrazolo[1,5-a]pyridin-2-yl)-6,7-dihydro-1H-imidazo[4,5-c]pyridin-5(4H)-yl)methanone]	> 5000 nM
CC(C)(O)c1nc(C(F)F)c(C(=O)N2CCc3[nH]cnc3[C@H]2c2cc3ccccn3n2)o1 [Example 670, (S)-(4-(difluoromethyl)-2-(2-hydroxypropan-2-yl)oxazol-5-yl)(4-(pyrazolo[1,5-a]pyridin-2-yl)-6,7-dihydro-1H-imidazo[4,5-c]pyridin-5(4H)-yl)methanone]	< 500 nM
Cn1ccc(-c2nnc(C(=O)N3CCc4[nH]cnc4[C@@H]3c3cc4ccccn4n3)o2)n1 [Example 659, (R)-(5-(1-methyl-1H-pyrazol-3-yl)-1,3,4-oxadiazol-2-yl)(4-(pyrazolo[1,5-a]pyridin-2-yl)-6,7-dihydro-1H-imidazo[4,5-c]pyridin-5(4H)-yl)methanone]	1000 to 5000 nM
O=C(c1nnc(-c2ccn(C(F)F)n2)o1)N1CCc2[nH]cnc2[C@H]1c1cc2ccccn2n1 [Example 666, (S)-(5-(1-(difluoromethyl)-1H-pyrazol-3-yl)-1,3,4-oxadiazol-2-yl)(4-(pyrazolo[1,5-a]pyridin-2-yl)-6,7-dihydro-1H-imidazo[4,5-c]pyridin-5(4H)-yl)methanone]	500 to 1000 nM
O=C(c1ccnn1C(F)F)N1CCc2[nH]cnc2[C@H]1c1cc2c(F)cccn2n1 [Example 776, (S)-(1-(difluoromethyl)-1H-pyrazol-5-yl)(4-(4-fluoropyrazolo[1,5-a]pyridin-2-yl)-6,7-dihydro-1H-imidazo[4,5-c]pyridin-5(4H)-yl)methanone]	< 500 nM

Second part, the compound after the results:

AC50	Compound
> 5000 nM	O=C(c1nnc(-c2ccn(C(F)(F)F)n2)o1)N1CCc2[nH]cnc2[C@@H]1c1cc2c(OC(F)(F)F)cccn2n1 [Example 1707, (R)-(4-(4-(trifluoromethoxy)pyrazolo[1,5-a]pyridin-2-yl)-6,7-dihydro-1H-imidazo[4,5-c]pyridin-5(4H)-yl)(5-(1-(trifluoromethyl)-1H-pyrazol-3-yl)-1,3,4-oxadiazol-2-yl)methanone]
< 500 nM	CC(C)(O)c1nc(C(F)F)c(C(=O)N2CCc3[nH]cnc3[C@H]2c2cc3cc(F)ccn3n2)o1 [Example 1084, (S)-(4-(difluoromethyl)-2-(2-hydroxypropan-2-yl)oxazol-5-yl)(4-(5-fluoropyrazolo[1,5-a]pyridin-2-yl)-6,7-dihydro-1H-imidazo[4,5-c]pyridin-5(4H)-yl)methanone]
500 to 1000 nM	C[C@H](O)c1nc(C(F)F)c(C(=O)N2CCc3[nH]cnc3[C@H]2c2cc3cccc(Cl)n3n2)o1 [Example 1195, ((S)-4-(7-chloropyrazolo[1,5-a]pyridin-2-yl)-6,7-dihydro-1H-imidazo[4,5-c]pyridin-5(4H)-yl)(4-(difluoromethyl)-2-((S)-1-hydroxyethyl)oxazol-5-yl)methanone]
< 500 nM	O=C(c1nnc(-c2ccccn2)o1)N1CCc2[nH]cnc2[C@H]1c1cc2cccc(C(F)(F)F)n2n1 [Example 1028, (S)-(5-(pyridin-2-yl)-1,3,4-oxadiazol-2-yl)(4-(7-(trifluoromethyl)pyrazolo[1,5-a]pyridin-2-yl)-6,7-dihydro-1H-imidazo[4,5-c]pyridin-5(4H)-yl)methanone]
< 500 nM	Cc1cccc(-c2nnc(C(=O)N3CCc4[nH]cnc4[C@H]3c3cc4cccc(C(F)(F)F)n4n3)o2)n1 [Example 1400, (S)-(5-(6-methylpyridin-2-yl)-1,3,4-oxadiazol-2-yl)(4-(7-(trifluoromethyl)pyrazolo[1,5-a]pyridin-2-yl)-6,7-dihydro-1H-imidazo[4,5-c]pyridin-5(4H)-yl)methanone]
< 500 nM	O=C(c1nnc(-c2cccnc2)o1)N1CCc2[nH]cnc2[C@H]1c1cc2c(C(F)(F)F)cccn2n1 [Example 1302, (S)-(5-(pyridin-3-yl)-1,3,4-oxadiazol-2-yl)(4-(4-(trifluoromethyl)pyrazolo[1,5-a]pyridin-2-yl)-6,7-dihydro-1H-imidazo[4,5-c]pyridin-5(4H)-yl)methanone]
< 500 nM	O=C(c1nnc(C2CC2)o1)N1CCc2[nH]cnc2[C@H]1c1cc2c(F)cccn2n1 [Example 946, (S)-(5-cyclopropyl-1,3,4-oxadiazol-2-yl)(4-(4-fluoropyrazolo[1,5-a]pyridin-2-yl)-6,7-dihydro-1H-imidazo[4,5-c]pyridin-5(4H)-yl)methanone]
> 5000 nM	Cc1cccn2nc([C@H]3c4nc[nH]c4CCN3C(=O)c3nnc(-c4ncccc4F)o3)cc12 [Example 818, (R)-(5-(3-fluoropyridin-2-yl)-1,3,4-oxadiazol-2-yl)(4-(4-methylpyrazolo[1,5-a]pyridin-2-yl)-6,7-dihydro-1H-imidazo[4,5-c]pyridin-5(4H)-yl)methanone]
< 500 nM	FC(F)c1cccn2nc([C@@H]3c4nc[nH]c4CCN3c3nnc(C(F)(F)F)o3)cc12 [Example 1767, (S)-2-(4-(4-(difluoromethyl)pyrazolo[1,5-a]pyridin-2-yl)-6,7-dihydro-1H-imidazo[4,5-c]pyridin-5(4H)-yl)-5-(trifluoromethyl)-1,3,4-oxadiazole]
< 500 nM	O=C(c1nnc(-c2ccn(C(F)(F)F)n2)o1)N1CCc2[nH]cnc2[C@H]1c1cc2c(C(F)(F)F)cccn2n1 [Example 1512, (S)-(5-(1-(trifluoromethyl)-1H-pyrazol-3-yl)-1,3,4-oxadiazol-2-yl)(4-(4-(trifluoromethyl)pyrazolo[1,5-a]pyridin-2-yl)-6,7-dihydro-1H-imidazo[4,5-c]pyridin-5(4H)-yl)methanone]
< 500 nM	FC(F)c1cccn2nc([C@@H]3c4nc[nH]c4CCN3c3ncc(C(F)(F)F)cn3)cc12 [Example 1776, (S)-4-(4-(difluoromethyl)pyrazolo[1,5-a]pyridin-2-yl)-5-(5-(trifluoromethyl)pyrimidin-2-yl)-4,5,6,7-tetrahydro-1H-imidazo[4,5-c]pyridine]
